Assay results published in patent publication US10766884B2 (Pfizer Inc., priority 2018, dated 2020).

Legend:
CDK6/Cyclin D3 = CDK6/Cyclin D3 (Homo sapiens (Human), UniProt Q00534); test: CDK6/Cyclin D3 mobility shift assay; format: biochemical; settings: activated CDK6/Cyclin D3, 3.5 mM ATP, Morrison fit; read-out: CDK6_D3 Ki
Method: (§1) The purpose of the CDK6/Cyclin D3 assay is to evaluate the inhibition (% inhibition, Kiapp and Ki values) in the presence of small molecule inhibitors by using a fluorescence based microfluidic mobility shift assay. […] The mobility shift assay electrophoretically separates the fluorescently labeled peptides (substrate and phosphorylated product) following the kinase reaction. Both substrate and product are measured and the ratio of these values is used to generate % conversion of substrate to product by the LabChip EZ Reader.
The reaction was stopped after 95 minutes by the addition of 50 μL of 30 mM EDTA. Ki determinations were made from a plot of the fractional velocity as a function of inhibitor concentration fit to the Morrison equation with the enzyme concentration as a variable.
(§2) For CDK4 and CDK6 mobility shift assays, see also Morrison, J. F. (1969) Kinetics of the reversible inhibition of enzyme-catalysed reactions by tight-binding inhibitors, Biochimica et biophysica acta 185, 269-286; and Murphy, D. J. (2004) Determination of accurate KI values for tight-binding enzyme inhibitors: an in silico study of experimental error and assay design, Analytical biochemistry 327, 61-67.

CDK4/Cyclin D1 = CDK4/Cyclin D1 (Homo sapiens (Human), UniProt P11802); test: CDK4/Cyclin D1 mobility shift assay; format: biochemical; settings: activated CDK4/Cyclin D1, 3.5 mM ATP, Morrison fit; read-out: CDK4D1 Ki
Method: as §1, with “CDK4/Cyclin D1” for “of the CDK6/Cyclin D3”, “Conversion” for “conversion”
The reaction was stopped after 195 minutes by the addition of 50 μL of 30 mM EDTA. Ki determinations were made from a plot of the fractional velocity as a function of inhibitor concentration fit to the Morrison equation with the enzyme concentration as a variable.
as §2

CDK6/Cyclin D3, sequence (Q00534 whole entry): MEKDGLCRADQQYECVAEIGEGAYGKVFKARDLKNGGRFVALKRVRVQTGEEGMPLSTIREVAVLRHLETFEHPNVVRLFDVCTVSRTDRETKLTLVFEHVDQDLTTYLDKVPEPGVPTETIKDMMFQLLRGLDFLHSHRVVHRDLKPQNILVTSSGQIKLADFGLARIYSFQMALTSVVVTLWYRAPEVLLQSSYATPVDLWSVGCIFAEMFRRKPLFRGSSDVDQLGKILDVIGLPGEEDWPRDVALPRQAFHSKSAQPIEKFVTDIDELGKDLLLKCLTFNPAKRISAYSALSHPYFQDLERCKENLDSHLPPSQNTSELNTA
CDK6/Cyclin D3, sequence (P30281 whole entry partner): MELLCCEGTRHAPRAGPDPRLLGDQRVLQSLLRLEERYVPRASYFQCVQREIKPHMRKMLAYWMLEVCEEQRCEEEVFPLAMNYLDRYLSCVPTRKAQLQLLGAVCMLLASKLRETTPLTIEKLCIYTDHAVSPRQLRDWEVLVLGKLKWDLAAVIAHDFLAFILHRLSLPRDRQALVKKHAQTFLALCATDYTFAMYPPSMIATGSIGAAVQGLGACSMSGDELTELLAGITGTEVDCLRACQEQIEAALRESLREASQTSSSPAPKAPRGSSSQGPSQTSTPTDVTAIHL
CDK4/Cyclin D1, sequence (P11802 whole entry): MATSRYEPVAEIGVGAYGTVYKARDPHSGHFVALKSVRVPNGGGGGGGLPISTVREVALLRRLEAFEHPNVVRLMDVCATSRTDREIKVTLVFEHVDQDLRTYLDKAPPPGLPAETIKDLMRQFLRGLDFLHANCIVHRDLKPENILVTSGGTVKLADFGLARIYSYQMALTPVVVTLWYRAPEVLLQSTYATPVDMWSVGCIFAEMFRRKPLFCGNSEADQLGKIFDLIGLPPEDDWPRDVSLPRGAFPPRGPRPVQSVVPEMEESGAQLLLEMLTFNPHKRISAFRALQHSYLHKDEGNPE
CDK4/Cyclin D1, sequence (P24385 whole entry partner): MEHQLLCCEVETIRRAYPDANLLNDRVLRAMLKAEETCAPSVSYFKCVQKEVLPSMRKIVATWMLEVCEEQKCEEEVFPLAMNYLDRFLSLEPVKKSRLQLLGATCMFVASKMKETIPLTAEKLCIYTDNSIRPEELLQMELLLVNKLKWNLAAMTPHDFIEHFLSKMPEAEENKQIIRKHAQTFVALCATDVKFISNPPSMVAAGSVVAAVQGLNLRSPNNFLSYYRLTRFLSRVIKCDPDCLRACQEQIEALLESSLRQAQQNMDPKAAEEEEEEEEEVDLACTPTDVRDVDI

Ki (CDK6/Cyclin D3) [nM]	Ki (CDK4/Cyclin D1) [nM]	Structure (SMILES)
30.8	3.6	Cc1nc2c(F)cc(-c3nc(N[C@H]4CCN(S(C)(=O)=O)C[C@@H]4O)ncc3F)cc2n1C(C)C [Example F14, (3S,4S)-4-({5-fluoro-4-[4-fluoro-2-methyl-1-(propan-2-yl)-1H-benzimidazol-6-yl]pyrimidin-2-yl}amino)-1-(methanesulfonyl)piperidin-3-ol]
23	2.4	CC(C)n1cnc2c(F)cc(-c3nc(N[C@@H]4CCN(C(=O)C[C@H](N)C(F)(F)F)C[C@H]4O)ncc3Cl)cc21 [Example F31, (3S)-3-amino-1-[(3R,4R)-4-({5-chloro-4-[4-fluoro-1-(propan-2-yl)-1H-benzimidazol-6-yl]pyrimidin-2-yl}amino)-3-hydroxypiperidin-1-yl]-4,4,4-trifluorobutan-1-one]
26.4	2.7	COC(=O)N1CC[C@@H](Nc2ncc(Cl)c(-c3cc(F)c4ncn(C5CCOC5)c4c3)n2)[C@H](O)C1 (single isomer, unassigned) [Example F03]
125	15.3	Cc1nc2c(F)cc(-c3nc(N[C@H]4CCN(C)C[C@@H]4O)ncc3F)cc2n1C(C)C (single isomer, unassigned) [Example F07]
9.3	1	CC(C)n1c([C@H](C)O)nc2c(F)cc(-c3cc(N[C@@H]4CCOC[C@H]4O)ncc3Cl)cc21 [Example D02, 1,5-anhydro-3-[(5-chloro-4-{4-fluoro-2-[(1S)-1-hydroxyethyl]-1-(propan-2-yl)-1H-benzimidazol-6-yl}pyridin-2-yl)amino]-2,3-dideoxy-D-threo-pentitol]
–	11.6	CC(C)n1c([C@@H](C)O)nc2c(F)cc(-c3nc(N[C@H]4CCN(S(C)(=O)=O)C[C@@H]4O)ncc3Cl)cc21 [Example F13, (3S,4S)-4-[(5-chloro-4-{4-fluoro-2-[(1R)-1-hydroxyethyl]-1-(propan-2-yl)-1H-benzimidazol-6-yl}pyrimidin-2-yl)amino]-1-(methanesulfonyl)piperidin-3-ol]
–	0.6	CC(O)c1nc2c(F)cc(-c3nc(N[C@@H]4CCN(S(=O)(=O)C(F)F)C[C@H]4O)ncc3Cl)cc2n1C(C)C (stereo partly drawn) [Example F09, (3R,4R)-4-({5-chloro-4-[4-fluoro-2-(1-hydroxyethyl)-1-(propan-2-yl)-1H-benzimidazol-6-yl]pyrimidin-2-yl}amino)-1-(difluoromethanesulfonyl)piperidin-3-ol]
–	50	CC(C)n1c([C@@H](C)O)nc2c(F)cc(-c3nc(N[C@@H]4CCN(S(C)(=O)=O)C[C@@H]4O)ncc3Cl)cc21 (single isomer, unassigned) [Example F12]

Continued, compound first:

Structure (SMILES)	Ki (CDK6/Cyclin D3) [nM]	Ki (CDK4/Cyclin D1) [nM]
CS(=O)(=O)N1CC[C@@H](Nc2ncc(Cl)c(-c3cc(F)c4nc(CO)n(C5CCC5)c4c3)n2)[C@H](O)C1 [Example A65, (3R,4R)-4-({5-chloro-4-[1-cyclobutyl-4-fluoro-2-(hydroxymethyl)-1H-benzimidazol-6-yl]pyrimidin-2-yl}amino)-1-(methanesulfonyl)piperidin-3-ol]	3.5	0.6
Cc1nc2c(F)cc(-c3nc(N[C@@H]4CCNC[C@H]4O)ncc3F)cc2n1C(C)C [Example A37, (3R,4R)-4-({5-fluoro-4-[4-fluoro-2-methyl-1-(propan-2-yl)-1H-benzimidazol-6-yl]pyrimidin-2-yl}amino)piperidin-3-ol]	34.2	3.5
CC1(n2c(CO)nc3c(F)cc(-c4nc(N[C@@H]5CCOC[C@H]5O)ncc4Cl)cc32)CC1 [Example A63, 1,5-anhydro-3-({5-chloro-4-[4-fluoro-2-(hydroxymethyl)-1-(1-methylcyclopropyl)-1H-benzimidazol-6-yl]pyrimidin-2-yl}amino)-2,3-dideoxy-D-threo-pentitol]	9.7	0.9
CC1(C)CNCc2nc3c(F)cc(-c4nc(N[C@@H]5CCOC[C@H]5O)ncc4Cl)cc3n21 [Example A46, 1,5-anhydro-3-{[5-chloro-4-(9-fluoro-4,4-dimethyl-1,2,3,4-tetrahydropyrazino[1,2-a]benzimidazol-7-yl)pyrimidin-2-yl]amino}-2,3-dideoxy-D-threo-pentitol]	40.5	2.3
CC(C)(F)Cn1c(CO)nc2c(F)cc(-c3nc(N[C@@H]4CCOC[C@H]4O)ncc3Cl)cc21 [Example A64, 1,5-anhydro-3-({5-chloro-4-[4-fluoro-1-(2-fluoro-2-methylpropyl)-2-(hydroxymethyl)-1H-benzimidazol-6-yl]pyrimidin-2-yl}amino)-2,3-dideoxy-D-threo-pentitol]	10.7	2
COc1cnc(N[C@@H]2CCN(S(C)(=O)=O)C[C@H]2O)nc1-c1cc(F)c2nc(C)n(C(C)C)c2c1 [Example A82, (3R,4R)-4-({4-[4-fluoro-2-methyl-1-(propan-2-yl)-1H-benzimidazol-6-yl]-5-methoxypyrimidin-2-yl}amino)-1-(methanesulfonyl)piperidin-3-ol]	24.6	3.8
CC(C)n1nnc2ccc(-c3nc(N[C@@H]4CCN(S(C)(=O)=O)C[C@H]4O)ncc3Cl)cc21 [Example A84, (3R,4R)-4-({5-chloro-4-[1-(propan-2-yl)-1H-benzotriazol-6-yl]pyrimidin-2-yl}amino)-1-(methanesulfonyl)piperidin-3-ol]	30.3	6
Cc1nc2c(F)cc(-c3nc(N[C@@H]4CCN(S(C)(=O)=O)C[C@H]4O)ncc3Cl)cc2n1C [Example A08]	4.8	1.1
CC(C)n1cnc2c(F)cc(-c3nc(N[C@@H]4CCN(S(C)(=O)=O)C[C@H]4O)ncc3C(F)(F)F)cc21 [Example B02, (3R,4R)-4-({4-[4-fluoro-1-(propan-2-yl)-1H-benzimidazol-6-yl]-5-(trifluoromethyl)pyrimidin-2-yl}amino)-1-(methanesulfonyl)piperidin-3-ol]	27.1	7.3
Cc1nc2c(F)cc(-c3nc(N[C@@H]4CCN(S(C)(=O)=O)C[C@H]4O)ncc3Cl)cc2n1[C@@H](C)CN [Example A39, (3R,4R)-4-[(4-{1-[(2S)-1-aminopropan-2-yl]-4-fluoro-2-methyl-1H-benzimidazol-6-yl}-5-chloropyrimidin-2-yl)amino]-1-(methanesulfonyl)piperidin-3-ol]	12.3	1.3
CC(C)n1c(C(N)=O)nc2c(F)cc(-c3nc(N[C@@H]4CCOC[C@H]4O)ncc3Cl)cc21 [Example A33]	78	8.3
C[C@@H](N)c1nc2c(F)cc(-c3nc(N[C@@H]4CCOC[C@H]4O)ncc3Cl)cc2n1C(C)(C)C [Example A42, 3-[(4-{2-[(1R)-1-aminoethyl]-1-tert-butyl-4-fluoro-1H-benzimidazol-6-yl}-5-chloropyrimidin-2-yl)amino]-1,5-anhydro-2,3-dideoxy-D-threo-pentitol]	54.7	6
CC(C)n1c(C2(N)CC2)nc2c(F)cc(-c3nc(N[C@@H]4CCOC[C@H]4O)ncc3Cl)cc21 [Example A43, 3-({4-[2-(1-aminocyclopropyl)-4-fluoro-1-(propan-2-yl)-1H-benzimidazol-6-yl]-5-chloropyrimidin-2-yl}amino)-1,5-anhydro-2,3-dideoxy-D-threo-pentitol]	44	4.8
CN1Cc2nc3c(F)cc(-c4nc(N[C@@H]5CCOC[C@H]5O)ncc4Cl)cc3n2C(C)(C)C1 [Example A22]	49.7	3.2
CC(C)n1c([C@@H](C)O)nc2c(F)cc(-c3nc(N[C@@H]4CCNC[C@H]4O)ncc3Cl)cc21 [Example A50, (3R,4R)-4-[(5-chloro-4-{4-fluoro-2-[(1R)-1-hydroxyethyl]-1-(propan-2-yl)-1H-benzimidazol-6-yl}pyrimidin-2-yl)amino]piperidin-3-ol]	110	17
OCc1nc2c(F)cc(-c3nc(N[C@@H]4CCOC[C@H]4O)ncc3Cl)cc2n1C1CC(F)(F)C1 [Example A66, 1,5-anhydro-3-({5-chloro-4-[1-(3,3-difluorocyclobutyl)-4-fluoro-2-(hydroxymethyl)-1H-benzimidazol-6-yl]pyrimidin-2-yl}amino)-2,3-dideoxy-D-threo-pentitol]	54.7	12.1
Cc1nc2c(F)cc(-c3nc(N[C@@H]4CCN(S(C)(=O)=O)C[C@H]4O)ncc3Cl)cc2n1C1CC1 [Example A72, (3R,4R)-4-{[5-chloro-4-(1-cyclopropyl-4-fluoro-2-methyl-1H-benzimidazol-6-yl)pyrimidin-2-yl]amino}-1-(methanesulfonyl)piperidin-3-ol]	2.1	0.3
CC1OCC(C)n2c1nc1c(F)cc(-c3nc(N[C@@H]4CCOC[C@H]4O)ncc3Cl)cc12 (single isomer, unassigned) [Example A20]	20.4	–
CC1OCC(C)n2c1nc1c(F)cc(-c3nc(N[C@@H]4CCOC[C@H]4O)ncc3Cl)cc12 (single isomer, unassigned) [Example A21]	136	–
